Consider one compound from patent US6521647B2, “Treatment of renal disorders” (Pfizer Inc., priority 2000, dated 2003).

Molecules are shown by their SMILES.

In assay [1] the test system is cats with chronic renal failure. In words: GFR from plasma clearance of iohexol in client-owned normotensive cats with spontaneous chronic renal failure (Experiment 2). The assay is classed as in vivo, cat. An excerpt:
The data in the Table below were collected from client-owned, pet cats that had been diagnosed with spontaneous chronic renal failure (chronic renal insufficiency). These cats were presented by owners/clients to veterinary practices for evaluation of general health, kidney function, and systolic blood pressure.
Chronic renal failure is generally considered an irreversible and progressive disease in cats. […] Cats were considered normotensive as defined by systolic arterial blood pressure less than 160 mm Hg prior to the onset of treatment.
Renal function was assessed by determining glomerular filtration rate (GFR). GFR was estimated from plasma clearance of the exogenous marker, iohexol, approximately 7 days prior to the onset of treatment (day—7) and on approximately days 28, 56, 112, and 224 following onset of treatment.

The test system of assay [2] is normotensive nephrectomised cats with chronic renal failure. Briefly: GFR in normotensive nephrectomised cats with chronic renal failure (Example 1). It counts as in vivo, cat. Conditions: amlodipine besylate once daily at 0.125 mg/kg; after 35 days; no change in placebo group. The procedure: In this experiment, comparative groups of normotensive nephrectomised cats with chronic renal failure had their GFR measured. […] After 35 days the GFR was measured again. There was no change in the placebo group, but the GFR had increased by an average of ca. 28% for the amlodipine-treated group.

Take `CCOC(=O)C1=C(COCCN)NC(C)=C(C(=O)OC)C1c1ccccc1Cl` (stereo not drawn) [Amlodipine, amlodipine besylate]: in assay [1] (0.125 to 0.25 mg/kg once daily oral, placebo declined 17%), the “GFR increase on average between day −7 and day 224” value is reported as 9%. Besides, the “effect on decline in renal function (in words)” value in assay [1] (0.125 to 0.25 mg/kg/day orally) was “prevents the decline in function associated with the progression of chronic renal failure in cats”. In addition, the “increase in GFR (average)” value in assay [2] is on record as “ca. 28%”.
